Assay results: EPA's ToxValDB 9.5 (doi:10.2903/j.efsa.2014.3560)
≈ marks a conversion by molar mass, not a printed value.

Tests used:
[1] = tested on: Rattus norvegicus; details: for NOAEL: reproduction developmental; for LD50: acute, oral, mortality
[2] = tested on: Anas platyrhynchos
[3] = tested on: Apis mellifera; details: acute, duration: 48 hours, mortality
[4] = tested on: Bibionidae; details: chronic/long-term; duration: 28 days; M/F; development
[5] = tested on: Canidae; details: chronic; duration: 1 years; oral; Dog Other; clinical signs
[6] = tested on: Colinus virginianus; details: acute, oral, mortality
[7] = tested on: Lepomis macrochirus; details: acute; duration: 96 hours; mortality
[8] = tested on: Pimephales promelas; details: chronic/long-term
[9] = tested on: Tagia sp.
[10] = tested on: Aphidius rhopalosiphi; assay: LR50; higher = less toxic; details: not reported; mortality
[11] = tested on: Typhlodromus pyri; assay: LR50; higher = less toxic; details: chronic/long-term; duration: 7 days; mortality

Structure (SMILES) | NOAEL [1] [mg/kg-day] | NOAEL ([1]; body weight) [mg/kg-day] | LD50 ([2]; short-term, oral, feed, mortality) [mg/kg-day] | LD50 ([3]; dermal) [µg/piece] | LD50 ([3]; oral, unspecified) [µg/piece] | NOEC [4] [µg/L] | NOAEL [5] [mg/kg-day] | LD50 ([6]; diet) [mg/kg-day] | LD50 [6] [mg/kg-day] | LC50 [7] [ng/mL] | NOEC [8] [µg/L] | LD50 ([1]; F) [mg/kg-day] | LD50 ([1]; M) [mg/kg-day] | LC50 ([9]; acute, duration: 14 days, mortality) [mg/kg] | NOEC ([9]; chronic/long-term, reproduction) [mg/kg] | LR50 [10] [g/ha] | LR50 [11] [g/ha] | NOEC ([2]; reproductive, reproduction) [mg/kg-day]
CC1(C)C(C=C(Cl)C(F)(F)F)C1C(=O)OC(C#N)c1cccc(Oc2ccccc2)c1 (stereo not drawn) [alpha-Cyhalothrin] | 0.125 | 0.5 |  |  |  |  |  |  |  |  |  |  |  |  |  |  |  | 
CC1(C)[C@H](C(=O)O[C@H](C#N)c2cccc(Oc3ccccc3)c2)[C@@H]1/C=C(\Cl)C(F)(F)F [gamma-Cyhalothrin] |  | 0.5 | > 429 | 0.005 | 4.2 | 0.0469 | 0.5 | 225 | > 2000 | 0.0354 (≈ 0.0787 nM) | 0.0155 | > 55 | > 50 | > 1300 | 0.5 | 0.23 | 0.0006 | 
CC1(C)[C@H](/C=C(\Cl)C(F)(F)F)[C@@H]1C(=O)O[C@@H](C#N)c1cccc(Oc2ccccc2)c1 [lambda-Cyhalothrin] |  |  |  |  |  |  | 0.5 |  |  |  |  |  |  |  |  |  |  | 1.35
